These results are taken from patent US20190160030A1, “CARBOXYLIC ACIDS FOR EARLY CHILDHOOD APPLICATION” (PROPONENT BIOTECH GMBH, priority 2016, published 2019).

For experiment [1], the system named is BALBC/J neonates epicutaneously sensitized with house dust mite (HDM). Briefly: Neonatal topical treatment in the epicutaneous HDM atopic dermatitis model: skin inflammatory score, TEWL, skin histology. Format: in vivo, mouse. The protocol:
A) Skin inflammatory scoring (0—Normal; 1—Mild inflammation, 2—Moderate inflammation; 3—Marked inflammation; 4—Severe inflammation; 5—Very severe inflammation) was performed (blinded for the experimental conditions) on 8-10 representative images of haematoxylin and eosin stained paraffin embedded skin tissue sections (4 μM).
B) Transepidermal water loss (TEWL) measurement was performed 24 hours after the end of the third epicutaneous HDM sensitization round. Three measurements were taken per mouse. n=5 mice per group.
Skin tissue from the sensitized area was fixed in formalin, embedded in paraffin and 4 μM tissue sections were stained with haematoxylin and eosin. Representative images from vehicle treated controls (left) or sodium propionate treated mice (right) are shown at a 10× magnification. Inserts are shown at a 20× magnification.
First generation BALBC/J (Charles River) neonates were topically treated on dorsal skin with 5 mg sodium propionate (50 μl of a 100 mg/ml Sodium propionate solution; Sodium propionate (Sigma Aldrich; catalogue number P5436) was dissolved in 0.9% NaCl and sterile filtered) or vehicle control (0.9% NaCl; Laboratorium G. Bichsel AG; catalogue number 1000096) on day 4 and 6 after birth. Ten days post birth epicutaneous sensitization with 15 μg house dust mite (HDM) (Greer Laboratories Inc.; catalogue number B84) was started. Epicutaneous sensitization was performed by application of gauze (Dermaplast; catalogue number 214 010) soaked in 15 μg HDM on the dorsal skin of the neonate, which was secured by a bioclusive dressing (Systagenix; catalogue number 2463) and covered with adhesive tape (Mölnlycke Health Care; catalogue number 310500) to prevent removal of the gauze and consequently HDM ingestion. The sensitization was performed for three consecutive weeks, each week consisting of five consecutive days of sensitization, with a change of the gauze on day 3 and removal of the gauze on day 5, followed by a 2 day recovery period. […]

In experiment [2] the test system is BALBC/J neonates sensitized and intranasally challenged with house dust mite (HDM). Briefly: Lung analysis after intranasal HDM challenge in the same model: BAL cell counts, PAS mucus staining. Format: in vivo, mouse. The conditions noted are these: topical 5 mg sodium propionate vs vehicle, n=5 mice per group. The protocol:
A) Airway eosinophil counts and B) airway neutrophils counts were determined in cytospins from bronchoalveolar lavage fluid collected at 72 hours after the last intranasal challenge.
C) Mucus production in the lung was quantified as the frequency of fully periodic acid-Schiff (PAS) stained cells in representative images of small and medium airways from PAS stained paraffin embedded lung tissue sections (4 μM). n=5 mice per group.
First generation BALBC/J (Charles River) neonates were topically treated on dorsal skin with 5 mg sodium propionate (50 μl of a 100 mg/ml Sodium propionate solution; Sodium propionate (Sigma Aldrich; catalogue number P5436) was dissolved in 0.9% NaCl and sterile filtered) or vehicle control (0.9% NaCl; Laboratorium G. Bichsel AG; catalogue number 1000096) on day 4 and 6 after birth. Ten days post birth epicutaneous sensitization with 15 μg house dust mite (HDM) (Greer Laboratories Inc.; catalogue number B84) was started. […]
Mouse tracheas were canulated and bronchoalveolar lavage (BAL) was performed with 500 μl PBS 0.2% BSA solution. Total BAL cell counts were determined using a Coulter Counter, and differential cell counts were determined on cytospin preparations of the BAL fluid. […]

In experiment [3] the test system is Nickel allergen contact hypersensitivity. Nature of the experiment: Contact hypersensitivity to Nickel allergen, topical propionate solution, clinical score of skin lesion. Format: in vivo, human. As to conditions: topical propionate solution subsequent to exposure to Nickel; worded as 'can be'. From the text: In this regard, human volunteers can be topically administered a propionate solution subsequent to exposure to a known allergen (e. g. Nickel); see Example 2. Symptoms of dermatitis and/or eczema can be observed, i.e. an allergic reaction. […] Accordingly, the compositions and methods of the invention as described herein in the various embodiments or aspects are, inter alia, effective following contact hypersensitivity to nickel. In addition, compositions and methods of the invention are effective in improving skin repair following an abrasion. Overall, treatment of skin with a solution containing propionate is effective at dampening skin diseases such as dermatitis and/or eczema and reducing redness of the skin, skin lesions, wrinkles, impurities and/or irregularities of the skin by improving the barrier function of the skin. […] The composition of the invention as described herein in the various embodiments or aspects can, inter alia, be applied topically and is relevant for the healthcare and cosmetics industry.
Allergic hypersensitivity can be induced through contact sensitization with Nickel allergen over a 12 hour time period. […] Clinical score of skin lesion can be determined by using protocols known in the art.

As to `CCC(=O)[O-].[Na+]` [propionate, Sodium propionate], the “allergic dermatitis skin inflammation” value in experiment [1] (topical 5 mg sodium propionate vs vehicle (0.9% NaCl), skin inflammatory scoring 0-5 on H&E skin sections, n=5 mice per group) is “protects against”. In experiment [1] (topical 5 mg sodium propionate vs vehicle, H&E stained skin sections from sensitized area), the epidermal thickening entry is given as “protects against”. Also, the “disruption of skin barrier (transepidermal water loss, TEWL)” value in experiment [1] (topical 5 mg sodium propionate vs vehicle, TEWL 24 hours after end of third epicutaneous HDM sensitization round, n=5 mice per group) is recorded as “protects against”. In experiment [2] (BAL fluid cytospins 72 hours after last intranasal challenge), the “allergic airway inflammation (airway eosinophil and neutrophil counts)” value is recorded as “protects against”. Further, in experiment [2] (PAS stained lung sections, small and medium airways), the “mucus production in the lung (frequency of PAS stained cells)” value was “protects against”. In experiment [3], the “clinical score (symptoms of dermatitis and/or eczema)” value is “significantly reduced”.
